Patent US9649295B2, “Chemical inhibitors of soluble adenylyl cyclase (sAC)” (Cornell Research Foundation, Inc., priority 2004, dated 2017)
Entries after “also recorded” stand apart in the source; their conditions may differ. Each block holds one compound with its values, some of them ahead of it. Where no end group is shown, it is not given here.

Legend:
[1] = system: cAMP in INS-1E cells; assay: intracellular cAMP in INS-1E cells; format: cell-based; details: for cAMP generation in low glucose: 2.5 mM glucose, 15 minutes, 10 nM glucagon; for effect on cAMP induced by high glucose: 16 mM glucose, 30 μM KH7, 30 μM KH7.15, 50 μM 2-hydroxyestradiol, 50 μM 2′5′ddAdo
Protocol: (§1) Briefly, cells (passage 140-150) were plated at 2.5×10^5 cells/well in a 24 well plate and permitted to recover for two days. Cells were glucose starved by incubation for 1 hour in the presence of 2.5 mM glucose KRB medium supplemented with 2 mM sodium bicarbonate, 10 mM Hepes, and 0.1% BSA. After washing, cells were incubated in KRB with either 2.5 mM or 16 mM glucose in the presence of either vehicle control (DMSO or MeOH) or indicated drug. After the indicated time, removed media was cleared of cell debris and secreted insulin was measured by Insulin ELISA kit (Linco Research, St. Charles, Mo., or ALPCO, Windham, N.H.). If cAMP was to be concomitantly measured, cells were pre-treated with IBMX for the final 10 minutes of the glucose starvation and IBMX was included in all subsequent incubations. For the washout experiment, subsequent to initial insulin determination, cells treated with KH7 were placed in fresh KRB (2.5 mM glucose) for an additional hour and insulin release was measured as above in the absence of any added drug. For transferrin recycling, loading of cells with I^125 transferrin was performed during hour incubation in 2.5 mM glucose KRB.

[2] = system: INS-1E cells; assay: insulin release in INS-1E cells; format: cell-based; details: for insulin release in low glucose: 2.5 mM glucose, 10 nM glucagon; for effect on glucose-stimulated insulin secretion (GSIS): 30 μM KH7, 30 μM KH7.15, 50 μM 2-hydroxyestradiol, 50 μM 2′5′ddAdo
Protocol: as §1

[3] = target: T1, sAC (Homo sapiens, UniProt Q96PN6); assay: cAMP forming activity inside cells stably overexpressing sAC; format: cell-based; details: read-out: in vivo IC50 sAC (basal)
T1 construct: expressed in transfected cells
T1 sequence (Q96PN6 whole entry, species assumed): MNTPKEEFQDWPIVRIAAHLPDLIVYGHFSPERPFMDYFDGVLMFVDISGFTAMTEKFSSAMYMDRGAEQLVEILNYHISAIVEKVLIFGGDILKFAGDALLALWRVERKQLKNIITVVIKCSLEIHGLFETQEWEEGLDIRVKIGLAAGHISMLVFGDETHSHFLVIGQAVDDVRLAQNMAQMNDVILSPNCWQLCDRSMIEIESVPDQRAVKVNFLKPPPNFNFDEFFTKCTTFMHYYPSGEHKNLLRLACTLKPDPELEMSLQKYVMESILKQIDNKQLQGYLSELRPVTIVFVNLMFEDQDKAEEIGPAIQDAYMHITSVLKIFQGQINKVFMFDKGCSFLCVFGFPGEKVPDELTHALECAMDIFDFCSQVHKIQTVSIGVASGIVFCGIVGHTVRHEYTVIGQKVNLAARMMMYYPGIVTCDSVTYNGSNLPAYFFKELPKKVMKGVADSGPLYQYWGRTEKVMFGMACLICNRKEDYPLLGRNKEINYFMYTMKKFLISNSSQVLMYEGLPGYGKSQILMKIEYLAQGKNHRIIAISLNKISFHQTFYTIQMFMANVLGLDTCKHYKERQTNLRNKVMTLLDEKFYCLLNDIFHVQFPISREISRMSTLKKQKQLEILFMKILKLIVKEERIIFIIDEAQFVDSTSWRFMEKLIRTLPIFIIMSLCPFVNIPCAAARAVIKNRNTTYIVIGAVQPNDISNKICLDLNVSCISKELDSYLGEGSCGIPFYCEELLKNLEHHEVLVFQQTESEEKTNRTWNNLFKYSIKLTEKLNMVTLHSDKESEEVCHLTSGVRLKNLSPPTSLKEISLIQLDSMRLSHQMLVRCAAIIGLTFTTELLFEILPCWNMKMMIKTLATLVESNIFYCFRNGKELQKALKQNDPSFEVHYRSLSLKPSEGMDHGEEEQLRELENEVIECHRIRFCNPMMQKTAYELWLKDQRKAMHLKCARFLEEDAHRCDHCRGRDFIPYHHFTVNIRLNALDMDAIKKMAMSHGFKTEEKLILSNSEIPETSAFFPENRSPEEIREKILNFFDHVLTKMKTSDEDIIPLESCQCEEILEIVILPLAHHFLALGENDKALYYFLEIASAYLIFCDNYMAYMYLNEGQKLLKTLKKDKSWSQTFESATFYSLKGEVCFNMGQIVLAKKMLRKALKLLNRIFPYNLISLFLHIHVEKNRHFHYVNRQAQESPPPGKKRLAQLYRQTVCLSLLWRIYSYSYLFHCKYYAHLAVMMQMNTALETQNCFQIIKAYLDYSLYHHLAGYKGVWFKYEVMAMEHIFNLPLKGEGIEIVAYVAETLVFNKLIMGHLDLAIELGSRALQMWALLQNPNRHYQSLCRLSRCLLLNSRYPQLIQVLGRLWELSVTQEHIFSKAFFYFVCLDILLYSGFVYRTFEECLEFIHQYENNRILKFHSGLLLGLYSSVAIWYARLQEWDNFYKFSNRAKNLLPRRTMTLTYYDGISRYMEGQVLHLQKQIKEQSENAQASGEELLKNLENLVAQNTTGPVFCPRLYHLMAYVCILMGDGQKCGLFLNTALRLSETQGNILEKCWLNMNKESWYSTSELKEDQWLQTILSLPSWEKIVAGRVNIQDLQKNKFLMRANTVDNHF

[4] = system: tmACs; assay: cAMP forming activity inside cells stimulated with forskolin; format: cell-based; details: read-out: in vivo IC50 tmAC (FSK)
[5] = target: T2, sperm sAC (sAC in extracts) (UniProt Q96PN6); assay: in vitro cyclase activity in whole cell extracts from cells overexpressing sperm sAC cDNA; format: biochemical; details: unit inferred
T2 construct: whole cell extracts from cells overexpressing sperm sAC cDNA (sAC in extracts)

[6] = target: T3, Type II tmAC (tmAC in extracts) (Homo sapiens, UniProt Q08462); assay: in vitro cyclase activity in extracts of cells overexpressing Type II tmAC; format: biochemical; details: unit inferred
T3 construct: expressed in transfected cells
T3 sequence (Q08462 whole entry): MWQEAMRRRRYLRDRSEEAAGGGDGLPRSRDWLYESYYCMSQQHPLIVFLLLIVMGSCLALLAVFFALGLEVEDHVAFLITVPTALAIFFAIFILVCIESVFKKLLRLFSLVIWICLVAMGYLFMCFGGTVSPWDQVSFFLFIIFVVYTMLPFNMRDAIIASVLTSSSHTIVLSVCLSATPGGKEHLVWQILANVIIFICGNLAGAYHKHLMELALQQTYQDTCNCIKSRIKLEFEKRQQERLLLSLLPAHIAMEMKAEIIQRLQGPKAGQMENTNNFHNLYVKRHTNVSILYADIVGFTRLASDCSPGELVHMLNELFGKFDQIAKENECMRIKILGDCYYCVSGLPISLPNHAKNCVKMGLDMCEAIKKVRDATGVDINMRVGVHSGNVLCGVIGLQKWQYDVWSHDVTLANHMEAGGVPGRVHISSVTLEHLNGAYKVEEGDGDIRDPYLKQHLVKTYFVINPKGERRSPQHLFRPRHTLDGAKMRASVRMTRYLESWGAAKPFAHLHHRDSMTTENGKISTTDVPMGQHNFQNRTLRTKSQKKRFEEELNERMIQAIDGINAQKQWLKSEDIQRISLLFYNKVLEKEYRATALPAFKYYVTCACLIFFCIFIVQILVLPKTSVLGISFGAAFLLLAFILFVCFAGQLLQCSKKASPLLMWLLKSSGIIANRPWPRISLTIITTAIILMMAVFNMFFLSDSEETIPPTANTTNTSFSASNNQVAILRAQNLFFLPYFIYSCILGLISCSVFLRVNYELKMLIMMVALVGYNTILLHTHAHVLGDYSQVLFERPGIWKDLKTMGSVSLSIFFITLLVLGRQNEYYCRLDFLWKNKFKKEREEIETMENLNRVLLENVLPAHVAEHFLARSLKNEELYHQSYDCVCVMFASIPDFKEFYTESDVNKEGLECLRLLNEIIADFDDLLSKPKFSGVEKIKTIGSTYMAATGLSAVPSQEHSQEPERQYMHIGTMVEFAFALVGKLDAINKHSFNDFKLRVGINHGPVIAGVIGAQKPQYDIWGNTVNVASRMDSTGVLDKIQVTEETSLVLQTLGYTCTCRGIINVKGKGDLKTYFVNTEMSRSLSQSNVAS

[7] = target: T4, purified sperm isoform of sAC protein (pure sAC) (Homo sapiens, UniProt Q96PN6); assay: in vitro cyclase activity of purified sAC protein (Table 1); format: biochemical
T4 construct: generated against human 48-kD isoform of sAC (sACt) antigen; made in house
T4 sequence (Q96PN6 1-469 limits assumed): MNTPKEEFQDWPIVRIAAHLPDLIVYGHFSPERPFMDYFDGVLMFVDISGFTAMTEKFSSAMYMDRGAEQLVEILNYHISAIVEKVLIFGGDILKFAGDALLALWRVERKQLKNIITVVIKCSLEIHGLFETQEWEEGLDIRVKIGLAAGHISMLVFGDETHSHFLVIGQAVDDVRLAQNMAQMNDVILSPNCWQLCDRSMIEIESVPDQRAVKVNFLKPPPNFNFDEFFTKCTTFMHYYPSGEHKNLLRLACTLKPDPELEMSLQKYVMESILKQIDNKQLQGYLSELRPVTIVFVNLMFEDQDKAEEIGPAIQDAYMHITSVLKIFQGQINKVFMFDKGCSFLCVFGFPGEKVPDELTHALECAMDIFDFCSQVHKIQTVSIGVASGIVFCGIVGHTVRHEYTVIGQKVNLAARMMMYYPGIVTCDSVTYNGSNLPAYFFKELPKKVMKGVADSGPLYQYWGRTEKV

[8] = target: T5, purified solubilized version of Type VII tmAC (sol.AC7) (Homo sapiens, UniProt P51828); assay: in vitro cyclase activity of purified solubilized Type VII tmAC; format: biochemical; details: read-out: in vitro IC50 pure sol.AC7
T5 construct: a mixture of purified catalytic domains, C1 and C2, from Type VII tmAC; made in house
T5 sequence (P51828 279-406 limits assumed): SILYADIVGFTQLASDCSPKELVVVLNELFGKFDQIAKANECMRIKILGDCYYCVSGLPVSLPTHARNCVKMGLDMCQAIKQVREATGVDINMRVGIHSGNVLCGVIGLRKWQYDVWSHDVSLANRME
T5 sequence (P51828 879-1023 limits assumed): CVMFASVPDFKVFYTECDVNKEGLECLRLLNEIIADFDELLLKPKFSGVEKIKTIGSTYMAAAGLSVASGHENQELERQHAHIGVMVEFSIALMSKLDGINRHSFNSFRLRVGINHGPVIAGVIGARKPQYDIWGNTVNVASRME

[9] = target: T6, purified recombinant human sACt protein (Homo sapiens, UniProt Q96PN6); assay: in vitro adenylyl cyclase assay on purified recombinant human sACt protein
T6 sequence (Q96PN6 1-469 limits assumed): T4 sequence (Q96PN6 1-469 limits assumed)
Protocol: (§2) In vitro adenylyl cyclase assays were performed on purified recombinant human sACt protein as previously described in Litvin et al., “Kinetic Properties of “Soluble” Adenylyl Cyclase.

[10] = system: tmACs; assay: adenylyl cyclase activity in forskolin stimulated INS-1E cell lysate; details: forskolin (10 μM) stimulated INS-1E
Protocol: as §2

[11] = system: CREB phosphorylation in isolated nuclei; assay: CREB phosphorylation in isolated HeLa nuclei (P2), Western analysis; format: biochemical; details: for relative intensity of phospho-CREB band normalized to basal: basal 1 U, 1 mM 8-Br cAMP, 40 mM bicarbonate alone or plus 10 μM H-89 or 1 mM 8-Br-RpcAMPs
Protocol: The resuspended pellet and 60% OptiPrep iodixanol were mixed (30% OptiPrep final) and centrifuged at 10,000 g for 20 min. The supernatant was removed and the nuclei-enriched pellet (P2) was resuspended in TM-2 buffer without detergent.
Reactions were stopped by the addition of 20 μl of SDS sample buffer (CREB phosphorylation) or by being placed into a 100° C. heat block for 3 min (adenylyl cyclase).
For whole cell and isolated nuclei CREB phosphorylation assays, equal cell or nuclear equivalents were separated under reducing conditions using a 10% SDS-PAGE, transferred to a PVDF membrane, and probed for CREB (rabbit polyclonal antiserum; Chemicon, Temecula, Calif.) and phosphorylated CREB (rabbit polyclonal antiserum; Upstate Biotechnology, Temecula, Calif.). HRP-conjugated secondary antibodies were used, and bands were visualized using ECL. Image analysis software (model Fluorchem 8800; Alpha Innotech, San Leandro, Calif.) was used to quantitate Western results. Intensities of phospho-CREB bands were normalized to total CREB.

[12] = system: CREB phosphorylation in isolated nuclei; assay: phospho-CREB immunocytochemistry of isolated nuclei; format: biochemical; details: 10 min; 40 mM sodium bicarbonate, 1 mM 8-Br cAMP, 10 μM forskolin
Protocol: Cell Signaling Technologies) overnight at 4° C. Staining was visualized by incubation with goat anti-rabbit Alexa Fluor 488 (Molecular Probes) for 1 h at room temperature, treated with DAPI for 5 min, and washed and mounted with gelvatol/DABCO (Sigma-Aldrich). Fluorescent images were recorded by a digital camera (Hamamatsu, Bridgewater, N.J.) connected to an inverted epifluorescent microscope (Nikon, Melville, N.Y.). Images were taken at the same exposure time and gain, and all photographic manipulations were performed equally. Phospho-CREB-positive nuclei were quantified in multiple fields from each stained slide by a blinded experimenter. […] Nuclei were also treated with DAPI to differentiate intact nuclei from membrane ghosts. DAPI-positive nuclei were scored for phosho-CREB immunofluorescence. Nuclei with detectable staining (FIG. 6A, NaHCO3) were considered positive for CREB phosphorylation, whereas nuclei with no detectable staining (FIG. 6A, Basal) were counted as negative. Multiple microscopic fields were photographed for each condition, and data was combined from three to five separate experiments.

[13] = system: PfAC; assay: adenylyl cyclase activity in whole cell extract of isolated parasites; format: biochemical, Plasmodium falciparum
[14] = system: Plasmodium falciparum; assay: Plasmodium falciparum viability, luciferase assay; format: cell-based
Protocol: . Plasmodium cultures were incubated in the indicated concentrations of KH7 or KH7.15 for 24 hours and viability assessed by luciferase assay (FIG. 16A). […].
Therefore, the effect of sAC inhibitors on P. falciparum viability was tested. […].

[15] = system: INS-1E cells; assay: transferrin recycling in INS-1E cells; format: cell-based; details: 30 minutes, KH7 30 μM
Protocol: as §1

[16] = system: primary mouse islets; assay: insulin release from isolated mouse islets; format: cell-based; details: 16.7 mM glucose, 30 minutes, 30 μM KH7
Protocol: After several washes with Hank's Balanced Salt Solution, islets were hand-picked and 15-20 islets were distributed into each well of a 12 well plate to adhere overnight in RPMI-1640 media supplemented with 10 mM HEPES, 5.6 mM glucose, 10% FBS, 2 mM L-glutamine, 1 mM sodium pyruvate, and antibiotics.
Insulin release from isolated islets was performed in 12 well plates. Islets were preincubated in KRB (2.8 mM glucose) for 1 hour followed by incubation for 30 minutes in 2.8 mM glucose KRB in the presence of drug. The same wells were then incubated for an additional 30 minutes in 16.7 mM glucose KRB in the presence of the same drugs. Media was removed, cleared of cells, and insulin was measured.

Compound: GLP-1: hormone stimulating tmACs (HAEGTFTSDVSSYLEGQAAKEFIAWLVKGR; ends and bridges not checked; UniProt P01275 98-127, looked up) [reference compound]
cAMP generation in low glucose [1]: three fold increase in cAMP generation | insulin release in low glucose ([2]; 15 minutes): no significant increase in insulin release

Compound: glucagon: hormone stimulating tmACs [reference compound]
cAMP generation in low glucose [1]: three fold increase in cAMP generation | insulin release in low glucose ([2]; 15 minutes): no significant increase in insulin release

Compound: COc1ccc(/C=C2\C(=O)N(c3nc(-c4ccc(Cl)cc4)cs3)N=C2c2ccccc2)cc1OC [KH2]
IC50 [3]: > 500 µM | IC50 [4]: > 500 µM | IC50 [5]: > 100 µM | IC50 [6]: > 100 µM | IC50 ([7]; μM): 2 µM | IC50 [8]: > 400 µM

Compound: C[C@H]1O[C@@H](n2cnc3c(N)ncnc32)C[C@@H]1O [2′5′ddAdo, 2′5′ dideoxyadenosine]
effect on cAMP induced by high glucose [1]: partially decreased glucose-induced cAMP generation | effect on sAC ([9]; bicarbonate/calcium stimulated pure sAC, concentrations up to 300 μM): did not significantly affect sAC; also recorded: inert towards sAC | effect on tmACs [10]: potent inhibitor of tmACs

Compound: Nc1ncnc2c1nc(Br)n2[C@@H]1O[C@@H]2COP(=O)(O)O[C@H]2[C@H]1O [8-Br-cAMP]
relative intensity of phospho-CREB band normalized to basal [11]: 30 U | increase in CREB phosphorylation ([11]; isolated nuclei, Western): 30 fold | percentage of phospho-CREB-positive nuclei relative to basal [12]: at least a twofold rise

Compound: COc1cc(/C=N/NC(=O)CSc2nc3ccccc3[nH]2)ccc1O [KH7.15]
effect on cAMP induced by high glucose [1]: not | effect on cyclase activity of purified sAC ([9]; bicarbonate (40 mM) and calcium (0.5 mM)): inert | effect on glucose-stimulated insulin secretion (GSIS) ([2]; 16 mM glucose): did not affect insulin secretion | dose required to inhibit PfAC activity [13]: ≥ 100 µM | lower affinity for inhibiting PfAC activity relative to KH7 [13]: 10 fold | dose required to kill parasites [14]: ≥ 100 µM | lower affinity for killing P. falciparum relative to KH7 [14]: 10 fold | effect on tmACs [10]: inert

Compound: Nc1ncnc2c1ncn2[C@@H]1O[C@@H]2CO[P@@](O)(=S)O[C@H]2[C@H]1O [RpcAMPs]
relative intensity of phospho-CREB band normalized to basal [11]: 8 U | reduction of CREB phosphorylation induced by bicarbonate ([11]; isolated nuclei, 40 mM bicarbonate): 70%

Compound: CC(C)Cn1c(=O)n(C)c(=O)c2[nH]cnc21 [IBMX, reference compound]
restoration of GSIS in the presence of KH7 ([2]; 0.5 mM IBMX, 30 μM KH7): did not restore GSIS in the presence of KH7 inhibition | enhancement of GSIS ([2]; 0.5 mM IBMX, 16 mM glucose, 15 minutes): at least 2 fold

Compound: C[C@]12CC[C@@H]3c4cc(O)c(O)cc4CC[C@H]3[C@@H]1CC[C@@H]2O [2-hydroxyestradiol, reference compound]
effect on transferrin recycling [15]: unaffected | effect on cAMP induced by high glucose [1]: blocked the cAMP induced by the presence of high glucose | effect on insulin release induced by high glucose in islets [16]: inhibited insulin release induced by high glucose | effect on glucose-stimulated insulin secretion (GSIS) ([2]; 16 mM glucose): completely inhibited GSIS

Compound: Cc1ccccc1N1C(=O)/C(=C/c2ccc(-c3ccc(Cl)c(Cl)c3)o2)C=C1c1ccccc1 [KH4]
IC50 [3]: > 500 µM | IC50 [4]: > 500 µM | IC50 [5]: > 100 µM | IC50 [6]: > 100 µM | IC50 ([7]; μM): 6 µM | IC50 [8]: > 27 µM

Now from value to compound:

IC50 [3]: > 500 µM | IC50 [4]: > 500 µM | IC50 [5]: > 100 µM | IC50 [6]: > 100 µM | IC50 ([7]; μM): 8 µM | IC50 [8]: > 500 µM
Compound: Cc1ccc(C)c(N2C(=O)/C(=C/c3ccc(Cl)cc3)C=C2c2ccccc2)c1 [KH3]

IC50 ([7]; unit inferred): ~30 µM
Compound: O=C(CSc1nc2ccccc2[nH]1)N/N=C/c1c(F)cccc1Cl [KH7.06]

IC50 ([7]; unit inferred): 75 µM
Compound: CCn1c(SCC(=O)N/N=C/c2cc(Br)ccc2O)nc2ccccc21 [KH7.13]

IC50 [3]: 30 µM | IC50 [4]: > 200 µM | IC50 ([7]; unit inferred): ~30 µM
Compound: COc1ccc(Br)cc1/C=N/NC(=O)CSc1nc2ccccc2[nH]1 [KH7.05]

IC50 ([7]; unit inferred): 80 µM
Compound: Cc1ccsc1/C=N/NC(=O)CSc1nc2ccccc2n1Cc1ccccc1 [KH7.10]

IC50 [3]: > 500 µM | IC50 [4]: > 500 µM | IC50 ([7]; μM): 23 µM | IC50 [8]: > 200 µM
Compound: CCCCOc1ccc(C2=N/C(=C\C(Br)=C\c3ccccc3)C(=O)O2)cc1 [KH1]

IC50 [3]: 30 µM | IC50 [4]: > 200 µM | IC50 ([7]; μM): 30 µM
Compound: O=C(CSc1nc2ccccc2[nH]1)N/N=C/c1cc(Br)ccc1O [KH7.07]
